{"source": "patent US10494332B2", "about": "“Protein tyrosine phosphatases or SHP2 inhibitors and uses thereof” (Indiana University Research and Technology Corporation, priority 2015, dated 2019)", "key": {"[1]": {"test_system": "mPTPB transfected Raw264.7 cells", "assay": "IFN-γ induced Erk1/2 phosphorylation in transfected Raw264.7 macrophages", "type": "cell-based, mouse", "protocol": "Raw264.7 mouse macrophages were cultured in Dulbecco's modified Eagle's medium (DMEM) supplemented with 10% FBS (Invitrogen), penicillin (50 units/mL), and streptomycin (50 μg/mL) under a humidified atmosphere containing 5% CO2 at 37° C. Transfected Raw264.7 cells (Vector, WT-mPTPB) were seeded in a 12-well plate at a density of 4×10^4 cells/well. The following day cells were treated with mPTPB inhibitor 11a for 1 hour, then stimulated with IFN-γ (200 U/ml) for 1 hour. Subsequently, the cells were washed with ice-cold phosphate buffered saline, and lysed with lysis buffer on ice for 30 minutes. Cell lysate was then cleared by centrifuging at 13,000 rpm for 15 minutes. The phosphorylation of ERK1/2 was detected by Western blotting."}, "[2]": {"target": "T1, PTPH1 (Homo sapiens, UniProt P26045)", "T1 sequence (P26045 1-913)": "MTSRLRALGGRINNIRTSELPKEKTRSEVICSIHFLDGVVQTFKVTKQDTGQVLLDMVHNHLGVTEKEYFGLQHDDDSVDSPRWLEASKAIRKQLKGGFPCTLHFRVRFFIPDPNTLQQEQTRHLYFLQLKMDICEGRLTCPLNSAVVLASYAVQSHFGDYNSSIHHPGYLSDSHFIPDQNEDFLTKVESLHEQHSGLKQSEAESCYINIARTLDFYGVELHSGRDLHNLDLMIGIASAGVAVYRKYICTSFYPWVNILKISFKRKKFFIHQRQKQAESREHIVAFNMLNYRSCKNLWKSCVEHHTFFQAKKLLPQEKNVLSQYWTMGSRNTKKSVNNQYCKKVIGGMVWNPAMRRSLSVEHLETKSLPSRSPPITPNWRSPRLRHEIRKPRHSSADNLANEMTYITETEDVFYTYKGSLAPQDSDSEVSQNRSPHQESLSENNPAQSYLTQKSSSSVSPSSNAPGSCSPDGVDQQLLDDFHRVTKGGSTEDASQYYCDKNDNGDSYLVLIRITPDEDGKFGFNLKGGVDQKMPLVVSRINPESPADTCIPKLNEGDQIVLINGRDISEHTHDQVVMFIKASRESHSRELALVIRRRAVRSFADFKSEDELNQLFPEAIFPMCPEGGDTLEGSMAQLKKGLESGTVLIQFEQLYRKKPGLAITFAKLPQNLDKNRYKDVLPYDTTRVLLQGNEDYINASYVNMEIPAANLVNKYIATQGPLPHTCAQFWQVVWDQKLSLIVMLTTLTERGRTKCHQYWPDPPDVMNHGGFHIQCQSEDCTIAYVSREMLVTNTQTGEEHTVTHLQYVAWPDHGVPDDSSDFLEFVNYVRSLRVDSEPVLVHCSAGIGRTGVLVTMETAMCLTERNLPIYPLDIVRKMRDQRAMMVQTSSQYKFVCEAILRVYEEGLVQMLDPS", "assay": "PTP inhibition assay (pNPP)", "type": "biochemical"}, "[3]": {"assay": "Water solubility", "type": "physicochemical"}, "[4]": {"test_system": "M. tuberculosis Erdman", "assay": "Microplate Alamar Blue assay (MABA) MIC", "type": "cell-based", "conditions": "Mycobacterium tuberculosis, minimum inhibitory concentration, read-out: In vitro anti-Mtb activity MABA-MIC Erdman"}, "[5]": {"test_system": "M. tuberculosis H37Rv", "assay": "Chronic TB infection in guinea pigs, adjunctive treatment with HRZ", "type": "in vivo, guinea pig", "conditions": "added to the standard regimen HRZ, after 6 weeks of treatment"}, "[6]": {"test_system": "M. tuberculosis (Erdman and H37Rv) in J774 macrophages", "assay": "Macrophage assay: growth of M. tuberculosis in IFN-γ activated J774 macrophages", "type": "cell-based, Mycobacterium tuberculosis"}, "[7]": {"test_system": "M. tuberculosis H37Rv", "assay": "Microplate Alamar Blue assay (MABA) MIC", "type": "cell-based, Mycobacterium tuberculosis"}, "[8]": {"assay": "Pharmacokinetics and bioavailability in guinea pigs", "type": "in vivo, guinea pig", "protocol": "All drugs were suspended in 1% DMSO, 0.5% DEA, 48.5% PEG 400, and 50% water. Blood was collected for analysis of these drugs in plasma pre-dose and at 1, 4, 8, 24, and 48 h post-dose. Plasma was separated and stored at −70° C. until analysis. Plasma drug concentrations were determined by liquid chromatography-mass spectrometry and liquid chromatography-tandem mass spectrometry over the concentration range of 0.005-1 mg/L with dilution to 10 mg/L. Pharmacokinetic variables were calculated from individual drug concentration-time data using non-compartmental methods as implemented in WinNonlin version 5.0 (Pharsight, Mountain View, Calif.) as described earlier."}, "[9]": {"test_system": "insulin signaling pathway in HepG2 cells (LMWPTP)", "assay": "Insulin signaling in HepG2 cells", "type": "cell-based", "conditions": "HepG2, 1 hour pretreatment, 5 nM insulin for 5 minutes", "protocol": "To assess the effects of L335N15 in insulin signaling pathway, HepG2 cells were pretreated with L335N15 for 1 hour and were subsequently stimulated with 5 nM insulin for 5 minutes. […] Consistent with IR activation, downstream Akt phosphorylation (Ser473) was increased. […] Accordingly, LMWPTP inhibitors such as L335N15 described herein can be used to develop agents for the treatment of type 2 diabetes and insulin resistance."}}}
{"compound": "O=C(C(c1ccccc1)S(=O)(=O)O)N1CCCC2CCCCC21", "note": "(stereo not drawn) [Compound L319N53]", "values": [{"measurement": "Erk1/2 phosphorylation in mPTPB transfected Raw264.7 cells", "setting": "[1]; 8 nM, 16 nM, and 32 nM", "value": "increased Erk1/2 phosphorylation"}, {"measurement": "Erk1/2 phosphorylation in vector cells", "setting": "[1]; vector Raw264.7 cells", "value": "no effect"}, {"measurement": "IC50", "setting": "[2]", "value": "> 200", "unit": "µM"}, {"measurement": "solubility", "setting": "[3]", "value": "> 10000", "unit": "µg/mL"}]}
{"compound": "Cc1c(Br)cc(NC(=O)CS(=O)(=O)O)cc1Br", "values": [{"measurement": "MIC", "setting": "[4]", "value": "> 10", "unit": "µM"}, {"measurement": "Further reduction of mean lung CFU relative to HRZ", "setting": "[5]", "value": 0.14, "unit": "log10"}, {"measurement": "Anti-Mtb activity in infected macrophages", "setting": "[6]; J774A.1 macrophages, low micromolar concentrations", "value": "markedly decrease bacterial load"}, {"measurement": "IC90", "setting": "[6]; Mycobacterium tuberculosis, J774, IC90 in macrophages activated with interferon-γ, read-out: In vitro anti-Mtb activity, Mtb-infected macrophages (IC90)", "value": 1.38, "unit": "µM"}, {"measurement": "Activity in standard MIC assay", "setting": "[7]", "value": "devoid of activity"}, {"measurement": "MIC", "setting": "[7]; Mycobacterium tuberculosis, H37RV, minimum inhibitory concentration, read-out: In vitro anti-Mtb activity MABA-MIC H37Rv", "value": "> 10", "unit": "µM"}, {"measurement": "Time plasma concentration 10-fold in excess of biochemical IC50", "setting": "[8]; guinea pig, in vivo, po", "value": "12-14 hours"}, {"measurement": "Tmax", "setting": "[8]; guinea pig, plasma, po", "value": 2.5, "unit": "h"}, {"measurement": "Oral bioavailability and half-life in guinea pigs", "setting": "[8]; oral", "value": "good oral bioavailability and half-life"}]}
{"compound": "O=C(CS(=O)(=O)O)Nc1ccc2nc(C(F)(F)F)[nH]c2c1", "values": [{"measurement": "IC50", "setting": "[2]", "value": "> 100", "unit": "µM"}]}
{"compound": "O=C(C(c1ccccc1)S(=O)(=O)O)N1CCC(Cc2ccccc2)CC1", "note": "(stereo not drawn) [Compound L319N46]", "values": [{"measurement": "IC50", "setting": "[2]", "value": "> 200", "unit": "µM"}, {"measurement": "solubility", "setting": "[3]", "value": "> 10000", "unit": "µg/mL"}]}
{"compound": "O=C(C(c1ccccc1)S(=O)(=O)O)N1CCC(c2ccc(Cl)c(Cl)c2)CC1", "note": "(stereo not drawn) [Compound L319N47]", "values": [{"measurement": "IC50", "setting": "[2]", "value": 30, "unit": "µM"}, {"measurement": "solubility", "setting": "[3]", "value": "> 10000", "unit": "µg/mL"}]}
{"compound": "O=C(CS(=O)(=O)O)Nc1nc2ccc([N+](=O)[O-])cc2s1", "note": "[Compound L335N15-07]", "values": [{"measurement": "IC50", "setting": "[2]", "value": "> 100", "unit": "µM"}]}
{"compound": "O=C(CS(=O)(=O)O)Nc1nc2ccccc2s1", "note": "[Compound L335N15]", "values": [{"measurement": "Akt phosphorylation (Ser473)", "setting": "[9]", "value": "increased"}, {"measurement": "IR Tyr1162/1163 phosphorylation", "setting": "[9]; relative to DMSO", "value": "enhanced IR Tyr1162/1163 phosphorylation in a dose-dependent fashion"}, {"measurement": "IC50", "setting": "[2]", "value": "> 100", "unit": "µM"}]}
{"compound": "O=C(Nc1cccc(OCc2ccccc2)c1)C(c1ccccc1)S(=O)(=O)O", "note": "(stereo not drawn) [Compound L319M52]", "values": [{"measurement": "IC50", "setting": "[2]", "value": "> 200", "unit": "µM"}]}
{"compound": "O=C(CS(=O)(=O)O)Nc1cnc2ccccc2c1", "values": [{"measurement": "IC50", "setting": "[2]", "value": "> 100", "unit": "µM"}]}
